Our source for the IC50 values is US10000501B2, “Inhibitors of HIF prolyl hydroxylase” (MERCK SHARP & DOHME CORP., priority 2014, dated 2018).

The test deals with T1, human HIF-PHD2 (Homo sapiens, UniProt Q9GZT9).
T1 construct: FLAG-tagged full length PHD2 expressed in and purified from baculovirus-infected Sf9 cells; FLAG; made in house; host or cells: baculovirus-infected Sf9 cells
T1 sequence (Q9GZT9 whole entry): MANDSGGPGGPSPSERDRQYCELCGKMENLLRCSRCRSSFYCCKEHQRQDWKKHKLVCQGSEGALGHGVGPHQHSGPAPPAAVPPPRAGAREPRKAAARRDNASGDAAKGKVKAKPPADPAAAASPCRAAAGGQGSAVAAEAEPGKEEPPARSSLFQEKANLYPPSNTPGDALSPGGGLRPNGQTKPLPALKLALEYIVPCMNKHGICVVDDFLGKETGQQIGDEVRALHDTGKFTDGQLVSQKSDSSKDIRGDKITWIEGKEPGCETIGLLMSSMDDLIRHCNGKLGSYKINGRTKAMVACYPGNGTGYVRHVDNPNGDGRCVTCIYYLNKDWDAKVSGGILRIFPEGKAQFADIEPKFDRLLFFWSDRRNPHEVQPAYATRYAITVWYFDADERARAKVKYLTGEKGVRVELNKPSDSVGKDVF
The test can be described thus: HIF-PHD2 inhibition assay (hydroxylation of HIF-1α peptide, time resolved fluorescence). Format: biochemical. Conditions: FLAG-tagged full length PHD2; 0.2 μM 2-oxoglutarate, 0.5 μM HIF-1α peptide. How it is done:
To each well of a 384-well plate, 1 μL of test compounds in DMSO (final concentration ranging from 0.3 nM to 10 uM) were added into 20 μl of assay buffer (50 mM Tris pH 7.4/0.01% Tween-20/0.1 mg/ml bovine serum albumin/10 μM ferrous sulfate/1 mM sodium ascorbate/20 μg/ml catalase) containing 0.15 μg/ml FLAG-tagged full length PHD2 expressed in and purified from baculovirus-infected Sf9 cells. […] Purif.
Broadly, the IC50 is the concentration that gives 50% inhibition. A high value points to weaker potency in that assay. For the compound `O=C(O)CNC(=O)c1c(O)c2c(n(Cc3ccc(Cl)cc3)c1=O)COCC2` [Example 37, 2-(1-(4-Chlorobenzyl)-4-hydroxy-2-oxo-2,5,6,8-tetrahydro-1H-pyrano[3,4-b]pyridine-3-carboxamido)acetic acid], half-maximal inhibition (IC50) was put at 50.2 nM.

Regarding `O=C(O)CNC(=O)c1c(O)c2c(n(Cc3ccc(F)cc3F)c1=O)COCC2` [Example 38, 2-(1-(2,4-difluorobenzyl)-4-hydroxy-2-oxo-2,5,6,8-tetrahydro-1H-pyrano[3,4-b]pyridine-3-carboxamido)acetic acid], inhibition was half-maximal at 24.1 nM (IC50).

In the case of `CC(C)c1ccc(Cn2c3c(c(O)c(C(=O)NCC(=O)O)c2=O)CCOC3)cc1` [Example 39, 2-(4-hydroxy-1-(4-isopropylbenzyl)-2-oxo-2,5,6,8-tetrahydro-1H-pyrano[3,4-b]pyridine-3-carboxamido)acetic acid], the IC50 stood at 42.2 nM.

The compound `N#Cc1ccc(Cn2c3c(c(O)c(C(=O)NCC(=O)O)c2=O)CCOC3)cc1` [Example 40, 2-(1-(4-cyanobenzyl)-4-hydroxy-2-oxo-2,5,6,8-tetrahydro-1H-pyrano[3,4-b]pyridine-3-carboxamido)acetic acid] displayed an IC50 of 21.8 nM.

For `CS(=O)(=O)c1ccc(Cn2c3c(c(O)c(C(=O)NCC(=O)O)c2=O)CCOC3)cc1` [Example 41, 2-(4-hydroxy-1-(4-(methylsulfonyl)benzyl)-2-oxo-2,5,6,8-tetrahydro-1H-pyrano[3,4-b]pyridine-3-carboxamido)acetic acid], half-maximal inhibition (IC50) was put at 28.7 nM.

For `O=C(O)CNC(=O)c1c(O)c2c(n(Cc3ccc(C(F)(F)F)nc3)c1=O)COCC2` [Example 42, 2-(4-hydroxy-2-oxo-1-((6-(trifluoromethyl)pyridin-3-yl)methyl)-2,5,6,8-tetrahydro-1H-pyrano[3,4-b]pyridine-3-carboxamido)acetic acid], the IC50 amounted to 19.9 nM. The IC50 values of the last two compounds are within 1.5-fold of each other.

The compound `O=C(O)CNC(=O)c1c(O)c2c(n(Cc3cc(F)c(F)cc3F)c1=O)COCC2` [Example 43, 2-(4-hydroxy-2-oxo-1-(2,4,5-trifluorobenzyl)-2,5,6,8-tetrahydro-1H-pyrano[3,4-b]pyridine-3-carboxamido)acetic acid] had an IC50 of 26.5 nM.

`N#Cc1ccc(Cn2c3c(c(O)c(C(=O)NCC(=O)O)c2=O)CCOC3)c(F)c1` [Example 44, 2-(1-(4-cyano-2-fluorobenzyl)-4-hydroxy-2-oxo-2,5,6,8-tetrahydro-1H-pyrano[3,4-b]pyridine-3-carboxamido)acetic acid] displayed an IC50 of 14.4 nM.

`Cc1cc(Cn2c3c(c(O)c(C(=O)NCC(=O)O)c2=O)CCOC3)ccc1C#N` [Example 45, 2-(1-(4-cyano-3-methylbenzyl)-4-hydroxy-2-oxo-2,5,6,8-tetrahydro-1H-pyrano[3,4-b]pyridine-3-carboxamido)acetic acid] registered an IC50 of 90.1 nM.

In the case of `O=C(O)CNC(=O)c1c(O)c2c(n(Cc3ncc(C(F)(F)F)cn3)c1=O)COCC2` [Example 46, 2-(4-hydroxy-2-oxo-1-((5-(trifluoromethyl)pyrimidin-2-yl)methyl)-2,5,6,8-tetrahydro-1H-pyrano[3,4-b]pyridine-3-carboxamido)acetic acid], the IC50 is 90.1 nM.

With `O=C(O)CNC(=O)c1c(O)c2c(n(Cc3ccc(Cl)cc3F)c1=O)COCC2` [Example 47, 2-(1-(4-chloro-2-fluorobenzyl)-4-hydroxy-2-oxo-2,5,6,8-tetrahydro-1H-pyrano[3,4-b]pyridine-3-carboxamido)acetic acid], the IC50 is 19.3 nM.

Regarding `O=C(O)CNC(=O)c1c(O)c2c(n(Cc3nc4ccccc4s3)c1=O)COCC2` [Example 48, 2-(1-(benzo[d]thiazol-2-ylmethyl)-4-hydroxy-2-oxo-2,5,6,8-tetrahydro-1H-pyrano[3,4-b]pyridine-3-carboxamido)acetic acid], the IC50 turned out to be 8.9 nM.

Take `O=C(O)CNC(=O)c1c(O)c2c(n(Cc3ccc(OC(F)F)cc3)c1=O)COCC2` [Example 49, 2-(1-(4-(difluoromethoxy)benzyl)-4-hydroxy-2-oxo-2,5,6,8-tetrahydro-1H-pyrano[3,4-b]pyridine-3-carboxamido)acetic acid]: it took 28.6 nM to reach half-maximal inhibition (IC50).

Regarding `Cn1ccc(Cn2c3c(c(O)c(C(=O)NCC(=O)O)c2=O)CCOC3)n1` [Example 50, 2-(4-hydroxy-1-((1-methyl-1H-pyrazol-3-yl)methyl)-2-oxo-2,5,6,8-tetrahydro-1H-pyrano[3,4-b]pyridine-3-carboxamido)acetic acid], the IC50 was found to be 55.1 nM.

In turn, `COc1ccc(Cn2c3c(c(O)c(C(=O)NCC(=O)O)c2=O)CCOC3)cc1` [Example 51, 2-(4-hydroxy-1-(4-methoxybenzyl)-2-oxo-2,5,6,8-tetrahydro-1H-pyrano[3,4-b]pyridine-3-carboxamido)acetic acid] gave an IC50 of 30.2 nM.

As for `O=C(O)CNC(=O)c1c(O)c2c(n(Cc3ccc(OC(F)(F)F)cc3)c1=O)COCC2` [Example 52, 2-(4-hydroxy-2-oxo-1-(4-(trifluoromethoxy)benzyl)-2,5,6,8-tetrahydro-1H-pyrano[3,4-b]pyridine-3-carboxamido)acetic acid], the IC50 was 24.1 nM.

The compound `O=C(O)CNC(=O)c1c(O)c2c(n(Cc3ccc(F)cc3)c1=O)COCC2` [Example 53, 2-(1-(4-fluorobenzyl)-4-hydroxy-2-oxo-2,5,6,8-tetrahydro-1H-pyrano[3,4-b]pyridine-3-carboxamido)acetic acid] yielded an IC50 of 29.3 nM. The IC50 values of the last two compounds are within 1.5-fold of each other.

Turning to `O=C(O)CNC(=O)c1c(O)c2c(n(Cc3ccc(F)c(F)c3)c1=O)COCC2` [Example 54, 2-(1-(3,4-difluorobenzyl)-4-hydroxy-2-oxo-2,5,6,8-tetrahydro-1H-pyrano[3,4-b]pyridine-3-carboxamido)acetic acid], the IC50 is 30.8 nM.

`CNC(=O)c1ccc(Cn2c3c(c(O)c(C(=O)NCC(=O)O)c2=O)CCOC3)cc1` [Example 55, 2-(4-hydroxy-1-(4-(methylcarbamoyl)benzyl)-2-oxo-2,5,6,8-tetrahydro-1H-pyrano[3,4-b]pyridine-3-carboxamido)acetic acid] showed an IC50 of 21.3 nM.

In turn, `CC(C)Oc1ccc(Cn2c3c(c(O)c(C(=O)NCC(=O)O)c2=O)CCOC3)cc1` [Example 56, 2-(4-hydroxy-1-(4-isopropoxybenzyl)-2-oxo-2,5,6,8-tetrahydro-1H-pyrano[3,4-b]pyridine-3-carboxamido)acetic acid] displayed an IC50 of 29.1 nM.

Compound `N#Cc1cccc(Cn2c3c(c(O)c(C(=O)NCC(=O)O)c2=O)CCOC3)c1` [Example 57, 2-(1-(3-cyanobenzyl)-4-hydroxy-2-oxo-2,5,6,8-tetrahydro-1H-pyrano[3,4-b]pyridine-3-carboxamido)acetic acid] gave a 50% inhibitory concentration (IC50) of 35.2 nM.

`O=C(O)CNC(=O)c1c(O)c2c(n(Cc3ccccc3Cl)c1=O)COCC2` [Example 58, 2-(1-(2-chlorobenzyl)-4-hydroxy-2-oxo-2,5,6,8-tetrahydro-1H-pyrano[3,4-b]pyridine-3-carboxamido)acetic acid] returned an IC50 of 25.5 nM.

On to `O=C(O)CNC(=O)c1c(O)c2c(n(Cc3ccccn3)c1=O)COCC2` [Example 59, 2-(4-hydroxy-2-oxo-1-(pyridin-2-ylmethyl)-2,5,6,8-tetrahydro-1H-pyrano[3,4-b]pyridine-3-carboxamido)acetic acid], for which the IC50 was 44.2 nM.

`O=C(O)CNC(=O)c1c(O)c2c(n(Cc3ccncc3)c1=O)COCC2` [Example 60, 2-(4-hydroxy-2-oxo-1-(pyridin-4-ylmethyl)-2,5,6,8-tetrahydro-1H-pyrano[3,4-b]pyridine-3-carboxamido)acetic acid] showed an IC50 of 30.4 nM. This IC50 and that of the compound before are within 1.5-fold of each other.

In the case of `N#Cc1ccc(Cn2c3c(c(O)c(C(=O)NCC(=O)O)c2=O)CCOC3)cc1F` [Example 61, 2-(1-(4-cyano-3-fluorobenzyl)-4-hydroxy-2-oxo-2,5,6,8-tetrahydro-1H-pyrano[3,4-b]pyridine-3-carboxamido)acetic acid], the half-maximal inhibitory concentration (IC50) was determined as 22.6 nM. The IC50 values of the last two compounds are within 1.5-fold of each other.

As for `O=C(O)CNC(=O)c1c(O)c2c(n(Cc3cncs3)c1=O)COCC2` [Example 62, 2-(4-hydroxy-2-oxo-1-(thiazol-5-ylmethyl)-2,5,6,8-tetrahydro-1H-pyrano[3,4-b]pyridine-3-carboxamido)acetic acid], the IC50 was found to be 44.1 nM.

Compound `CC(C)(O)c1ccc(Cn2c3c(c(O)c(C(=O)NCC(=O)O)c2=O)CCOC3)cc1` [Example 63, 2-(4-Hydroxy-1-(4-(2-hydroxypropan-2-yl)benzyl)-2-oxo-2,5,6,8-tetrahydro-1H-pyrano[3,4-b]pyridine-3-carboxamido)acetic acid] returned an IC50 of 67.4 nM.

In the case of `NC(=O)c1ccc(Cn2c3c(c(O)c(C(=O)NCC(=O)O)c2=O)CCOC3)cc1` [Example 64, 2-(1-(4-Carbamoylbenzyl)-4-hydroxy-2-oxo-2,5,6,8-tetrahydro-1H-pyrano[3,4-b]pyridine-3-carboxamido)acetic acid], the concentration for half-maximal inhibition (IC50) was determined as 30.6 nM. Compared with the last compound, the IC50 is about 2.2-fold lower.

In turn, `O=C(O)CNC(=O)c1c(O)c2c(n(Cc3ccc(-c4ccc(C(F)(F)F)cc4)cc3)c1=O)COCC2` [Example 65, 2-(4-Hydroxy-2-oxo-1-((4′-(trifluoromethyl)-[1,1′-biphenyl]-4-yl)methyl)-2,5,6,8-tetrahydro-1H-pyrano[3,4-b]pyridine-3-carboxamido)acetic acid] displayed a concentration for half-maximal inhibition (IC50) of 23.6 nM. This IC50 and that of the compound before are within 1.5-fold of each other.

On to `O=C(O)CNC(=O)c1c(O)c2c(n(Cc3ccc(-c4ccc(OC(F)(F)F)cc4)cc3)c1=O)COCC2` [Example 66, 2-(4-hydroxy-2-oxo-1-((4′-(trifluoromethoxy)-[1,1′-biphenyl]-4-yl)methyl)-2,5,6,8-tetrahydro-1H-pyrano[3,4-b]pyridine-3-carboxamido)acetic acid], for which the IC50 was 28.8 nM.

`O=C(O)CNC(=O)c1c(O)c2c(n(Cc3ccc(-c4ccc(Cl)cc4)cc3)c1=O)COCC2` [Example 67, 2-(1-((4′-chloro-[1,1′-biphenyl]-4-yl)methyl)-4-hydroxy-2-oxo-2,5,6,8-tetrahydro-1H-pyrano[3,4-b]pyridine-3-carboxamido)acetic acid] showed an IC50 of 13.5 nM.
